# Measurements taken from patent US20120178815A1, “Compositions of (-)-E-10-OH-NT and Methods for Their Synthesis and Use” (Adolor Corporation, priority 2007, published 2012).
# “Also recorded” adds a separate entry of the source.
# How the values were obtained:
# [1] = Hygroscopicity of salt form; format: physicochemical; conditions: crystalline salt
# [2] = test system: acetic acid-induced abdominal constriction; conditions: cited from earlier work
# [3] = test system: pain intensity; conditions: study completers; Atkinson et al., 1999; cited from earlier work
# [4] = molecular target: T1, NE uptake, mouse atria (Mus musculus, UniProt O55192); conditions: Hyttel, 1980; cited from earlier work
# T1 construct: host or cells: mouse atria
# [5] = molecular target: T2, human serotonin transporter (hSERT) (Homo sapiens, UniProt P31645); assay: 5HT transporter competitive binding assay, [3H]imipramine; conditions: Example 14; read-out: SERT Ki
# T2 construct: expressed in transfected cells; host or cells: CHO cells (membranes)
# Description: (§1) Bound radioactivity was determined by scintillation spectroscopy. […] The Ki values of the various test compounds were determined using standard methods.
# as §1
# [6] = test system: L5 SNL rats, tactile allodynia; assay: L5-Single Nerve Ligation model of neuropathic pain (von Frey); format: in vivo, rat; conditions: 30 mg/kg, i.p.
# Description: Protocol. […] The test animals were placed in a Plexiglas chamber (10 cm×20 cm×25 cm) and habituated for 15 minutes. The chamber was positioned on top of a mesh screen so that von Frey monofilaments could be presented to the plantar surface of both hindpaws. Measurement of tactile sensitivity for each hindpaw were obtained using the up/down method (Dixon, 1980) with seven Frey monofilaments (0.4, 1, 2, 4, 6, 8 and 15 grams). Each trial started with a von Frey force of 2 grams delivered to the right hindpaw for approximately 1-2 seconds and then the left hindpaw. If there was no withdrawal response, the next higher force was delivered. If there was a response, the next lower force was delivered. This procedure was performed until no response was made at the highest force (15 grams) or until four stimuli were administered following the initial response. Each test group contained 8 animals. The sham-operated control group, which were operated on but not subject to nerve ligation, contained 4 animals. All animals were tested at 60 minutes, and 240 minutes, post-administration of test compounds.
# The 50% paw withdrawal threshold for each paw was calculated using the following formula: [Xth] log=[vFr] log+ky where [vFr] is the force of the last von Frey used, k=0.2249 which is the average interval (in log units) between the von Frey monofilaments, and y is a value that depends upon the pattern of withdrawal responses (Dixon, 1980). […] Testing for tactile sensitivity was performed twice and the mean 50% withdrawal value assigned as the tactile sensitivity for the right and left paws for each animal.
# The E-10-OH-NT compounds were administered as either a maleate or succinate salt. AT was administered as a hydrochloride salt. Dosage amounts are based on the amount of free base. The test animals were placed in a Plexiglas chamber (10 cm×20 cm×25 cm) and habituated for 15 minutes. The chamber was positioned on top of a mesh screen so that von Frey monofilaments could be presented to the plantar surface of both hindpaws. Measurement of tactile sensitivity for each hindpaw were obtained using the up/down method (Dixon, 1980) with seven Frey monofilaments (0.4, 1, 2, 4, 6, 8 and 15 grams). Each trial started with a von Frey force of 2 grams delivered to the right hindpaw for approximately 1-2 seconds and then the left hindpaw. If there was no withdrawal response, the next higher force was delivered. If there was a response, the next lower force was delivered. This procedure was performed until no response was made at the highest force (15 grams) or until four stimuli were administered following the initial response. Each test group contained 8 animals. The sham-operated control group, which were operated on but not subject to nerve ligation, contained 4 animals. […]
# [7] = molecular target: human NE transporter (hNET) (Homo sapiens, UniProt P23975); assay: NE transporter competitive binding assay, [3H]nisoxetine; conditions: Example 14; read-out: NET Ki
# Description: (§2) Protocol. […] Bound radioactivity was determined by scintillation spectroscopy. Non-specific binding was defined as the amount of binding that occurred in the presence of 1.0 μM desipramine. The Ki values of the various test compounds were determined using standard methods.
# as §2
# T1 sequence (O55192 whole entry): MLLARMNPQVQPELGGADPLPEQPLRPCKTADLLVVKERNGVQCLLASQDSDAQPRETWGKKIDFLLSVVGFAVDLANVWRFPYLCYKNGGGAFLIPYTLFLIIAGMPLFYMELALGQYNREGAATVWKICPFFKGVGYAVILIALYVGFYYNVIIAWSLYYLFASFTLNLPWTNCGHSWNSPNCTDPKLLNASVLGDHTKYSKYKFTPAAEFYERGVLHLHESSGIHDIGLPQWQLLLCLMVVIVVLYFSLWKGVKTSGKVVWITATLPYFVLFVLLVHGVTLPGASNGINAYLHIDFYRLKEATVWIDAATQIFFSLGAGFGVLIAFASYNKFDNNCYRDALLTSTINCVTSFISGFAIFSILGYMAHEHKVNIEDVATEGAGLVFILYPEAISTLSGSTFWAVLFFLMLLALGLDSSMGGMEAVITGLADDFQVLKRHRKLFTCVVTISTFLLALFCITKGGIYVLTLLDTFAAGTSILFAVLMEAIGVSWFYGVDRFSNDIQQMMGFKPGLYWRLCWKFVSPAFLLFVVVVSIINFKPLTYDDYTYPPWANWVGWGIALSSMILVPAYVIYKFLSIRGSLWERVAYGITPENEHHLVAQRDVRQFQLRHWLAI
# T2 sequence (P31645 whole entry): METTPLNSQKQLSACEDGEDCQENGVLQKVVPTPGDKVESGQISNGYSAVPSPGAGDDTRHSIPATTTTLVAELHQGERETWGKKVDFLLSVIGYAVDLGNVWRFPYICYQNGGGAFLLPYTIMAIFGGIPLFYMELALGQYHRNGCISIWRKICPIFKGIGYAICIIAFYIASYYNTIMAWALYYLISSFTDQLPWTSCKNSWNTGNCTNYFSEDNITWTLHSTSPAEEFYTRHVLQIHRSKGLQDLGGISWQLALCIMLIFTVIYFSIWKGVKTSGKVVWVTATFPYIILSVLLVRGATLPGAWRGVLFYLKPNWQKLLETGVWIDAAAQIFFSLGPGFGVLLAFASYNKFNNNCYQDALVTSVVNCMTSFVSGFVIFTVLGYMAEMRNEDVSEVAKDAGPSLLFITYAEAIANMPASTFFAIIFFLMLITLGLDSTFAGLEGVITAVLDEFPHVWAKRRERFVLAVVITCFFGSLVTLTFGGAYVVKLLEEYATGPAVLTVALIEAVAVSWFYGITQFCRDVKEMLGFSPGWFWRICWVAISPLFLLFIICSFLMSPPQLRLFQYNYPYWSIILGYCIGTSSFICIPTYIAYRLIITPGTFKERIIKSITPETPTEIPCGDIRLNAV
# Sequence of human NE transporter (hNET) (P23975 whole entry): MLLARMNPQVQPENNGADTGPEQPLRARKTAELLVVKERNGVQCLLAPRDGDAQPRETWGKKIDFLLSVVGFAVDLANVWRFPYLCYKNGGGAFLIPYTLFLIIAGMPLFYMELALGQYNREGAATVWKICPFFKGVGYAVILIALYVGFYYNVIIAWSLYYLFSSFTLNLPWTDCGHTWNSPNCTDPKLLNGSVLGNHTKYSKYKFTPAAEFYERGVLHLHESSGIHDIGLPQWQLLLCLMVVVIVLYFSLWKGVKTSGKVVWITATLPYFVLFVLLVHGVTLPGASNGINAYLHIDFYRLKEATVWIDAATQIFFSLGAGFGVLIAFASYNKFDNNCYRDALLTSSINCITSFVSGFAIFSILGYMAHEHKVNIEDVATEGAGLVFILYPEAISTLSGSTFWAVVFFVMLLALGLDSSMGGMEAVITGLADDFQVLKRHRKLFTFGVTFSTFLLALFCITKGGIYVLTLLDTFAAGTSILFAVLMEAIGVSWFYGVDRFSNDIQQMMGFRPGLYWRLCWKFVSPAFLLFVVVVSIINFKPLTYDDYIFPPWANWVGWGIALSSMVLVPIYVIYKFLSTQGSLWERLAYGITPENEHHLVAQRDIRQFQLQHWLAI
structure (smiles),measurement,setting,value
"CNCC/C=C1\c2ccccc2CC(O)c2ccccc21.O=C(O)CCC(=O)O (single isomer, unassigned; (-)) [(−)-E-10-OH-NT Succinate]",hygroscopicity,[1],non-hydroscopic; also recorded: non-hygroscopic
Clc1cccc(Cl)c1N=C1NCCN1 [clonidine],protection against acetic acid-induced abdominal constriction,"[2]; highest dose level, 1.0 mg/kg (s.c.)",100%
CNCCCC12CCC(c3ccccc31)c1ccccc12 [maprotiline],reduction in pain intensity,[3],45%
"CNCC/C=C1\c2ccccc2CC(O)c2ccccc21 (racemic) [(±)-E-10-OH-NT, (S/R)-5-[3-Methylamino-prop-(E)-ylidene]-10,11-dihydro-5H-dibenzo[a,d]cyclohepten-10-ol, reference compound]",IC50,[4],130 nM
same,Ki,[5],420 nM
same,antiallodynic activity,[6],comparable to that of the vehicle-only control
same,Ki,[7],51 nM
"COC1(C2=NCCN2)COc2ccccc2O1 (stereo not drawn) [RX821002, [2-(2-methoxy-1, -4-benzodioxan-2-yl)-2-imidazoline]]",inhibition of acetic acid-induced abdominal constriction,"[2]; doses up to 3 mg/kg, subcutaneously, by itself",did not produce significant inhibition
Fc1ccc([C@@H]2CCNC[C@H]2COc2ccc3c(c2)OCO3)cc1 [paroxetine],reduction in pain intensity,[3],26%
